In US20100285146A1, “PEPTIDES AND METHODS FOR THE TREATMENT OF SYSTEMIC LUPUS ERYTHEMATOSUS” (priority 2007, published 2010):
No end group written: not given here.

B1: 5107 peptide (charge subst. to neg. at 5100 a.a. 17) (peptide)
peptide: KEGYKVRLDLNITLEFETTSK
B2: 5200 peptide (R38′), mouse R38 analog (peptide)
peptide: KEGYKVRLDLNTTLEFRTTSK
B3: 5300 peptide, human R38 (peptide)
peptide: KEGYKVQSDVNITLEFRTSSQ
B4: 5106 peptide (charge subst. to neg. at 5100 a.a. 7) (peptide)
peptide: KEGYKVELDLNITLEFRTTSK
B5: 5108 peptide (Ala subst. of 5100 at all negative a.a.) (peptide)
peptide: KAGYKVRLALNITLAFRTTSK
B6: 5101 peptide (Res. 1-16 of 5100) (peptide)
peptide: KEGYKVRLDLNITLEF
B7: 5110 peptide (Ala subst. of 5100 a.a. 15) (peptide)
peptide: KEGYKVRLDLNITLAFRTTSK
B8: 5102 peptide (Res. 6-17 of 5100) (peptide)
peptide: VRLDLNITLEFR
B9: R38 peptide (5100), mouse R38 (peptide)
peptide: KEGYKVRLDLNITLEFRTTSK
B10: 5109 peptide (Ala subst. of 5100 a.a. 9) (peptide)
peptide: KEGYKVRLALNITLEFRTTSK

Tests used:
[1] = system: B3 human anti-DNA antibodies; assay: Anti-peptide direct binding ELISA with B3; details: direct binding ELISA; footnote: O.D. after two (2) hours
Method: (§1) Wells were coated with 10 μg/ml of the peptides, blocked with 1% BSA (bovine serum albumin) in PBS (pH 7.4), reacted with appropriately diluted plasma or monoclonal antibodies, incubated with anti-human or anti-mouse immunoglobulin enzyme conjugated to alkaline phosphatase and detected by addition of substrate (Sigma 100 Phosphatase Substrate Tablets) and color development using an Organon Teknika Microwell System spectrometer at wavelength of 405 nm.
The human monoclonal anti-DNA antibodies DIL 6 and B3 were derived from lupus patients by the hybridoma technique. […] In FIGS. 3 and 4, the peptides are referred to as denoted above or as follows; AS30 is R27, AS19 is R35, AS35 is R26, AS17 is R28 and AS6 is R18.
(§2) The peptides of the present invention were tested for their ability to bind directly with C72 murine anti-DNA antibodies and B3 human anti-DNA antibodies according to the method described hereinabove.

[2] = system: C72 murine anti-DNA antibody; assay: Anti-peptide direct binding ELISA with C72; details: for C72 Binding: direct binding ELISA, footnote: O.D. after one (1) hour; for binding of C72 murine anti-DNA antibody to laminin peptides (FIG. 1): ELISA, C72 conditioned medium in various dilutions
Method: as §1
The interaction of the C72 murine anti-DNA antibody with laminin peptides was analyzed by ELISA as described above. The C72 conditioned medium was diluted in PBS in various dilutions.
as §2

C72 anti-DNA antibody = assay: Competitive inhibition of C72 binding to R38 (5100); parameters: species or system murine; details: concentration of competitive inhibitor giving 50% inhibition, ELISA
Text: A competitive inhibition study compared how each of the peptides competes with R38 (5100) for binding to the C72 anti-DNA antibody. Conducted according to the methods described hereinabove, the results of the study are disclosed in Table 4 below and are further elucidated by reference to FIG. 10.

[3] = system: MRL/1pr/1pr urine antibodies; assay: Binding of murine urinary immunoglobulins, MRL/1pr/1pr urine; parameters: species or system mice; details: pooled urine of MRL/1pr/1pr mice
Method: as §1
(§3) Thus, pooled urine from at least 5 mice (either MRL/1pr/1pr or control mice, e.g. BALB/c) was added to wells coated with R38′ (5200), R18 or DNA as described above and bound 5200 assayed by ELISA.
(§4) Each group is comprised of pooled urine.

[4] = system: BALB/c urinary immunoglobulins; assay: Binding of murine urinary immunoglobulins, BALB/c control urine; details: pooled urine of BALB/c control mice
Method: as §1, §3, §4

[5] = system: C72 murine anti-DNA antibody; assay: Competitive inhibition of the binding of C72 to 5200; details: after incubation of C72 with the inhibiting agent
Method: The binding of C72 to 5200 was tested before and after incubation with 5200, R38, R18, Heparin, DNA and DNase. […] The percent inhibition is the percent reduction of the O.D. after incubation with the inhibiting agent.

[6] = system: urine antibodies of lupus patients; assay: Urine anti-peptide antibody ELISA in patients; type: binding, human
[7] = target: C72 murine anti-DNA antibody; assay: competitive inhibition ELISA: peptide in solution against binding of C72 to coated 5100

| Molecule | B3 Binding [1] | C72 Binding [2] | IC50 [7] | also measured |
| --- | --- | --- | --- | --- |
| KEGYKVELDLNITLEFETTSK [Peptide 5105] | 0.02 O.D. | 0.07 O.D. |  |  |
| KEGYKVRLDLNITLAFRTTSK [Peptide 5110] | 1.83 O.D. | 2.8 O.D. |  | 50% Inhibition of C72 binding to mouse R38 (5100) (C72 anti-DNA antibody): 0.7 µg/mL |
| LDLNITEFRTTSK [Peptide 5103] | 0.02 O.D. | 0.03 O.D. |  |  |
| DNA |  |  |  | Binding of murine urinary immunoglobulins to antigen [3]: U.D.; Binding of murine urinary immunoglobulins to antigen [4]: U.D.; inhibition of the binding of C72 to 5200 (FIG. 2) [5]: inhibition |
| RPVRHAQCRVCDGNSTNPRERH [Peptide R18, peptide from the N-terminal of mouse laminin alpha chain, residues 42-63, reference compound] |  | 0.01 O.D. |  | Binding of murine urinary immunoglobulins to antigen [3]: U.D.; Binding of murine urinary immunoglobulins to antigen [4]: U.D. |
| KEGYKVRLDLNITLEF [Peptide 5101] | 0.1 O.D. | 1.11 O.D. |  | 50% Inhibition of C72 binding to mouse R38 (5100) (C72 anti-DNA antibody): 5 µg/mL |
| KEGYKVQSDLNITLEFRTSSQ [Peptide 5300] | 0.03 O.D. | 0.03 O.D. |  | 50% Inhibition of C72 binding to mouse R38 (5100) (C72 anti-DNA antibody): 85 µg/mL |
| CC[C@H](C)[C@H](NC(=O)[C@H](CC(N)=O)NC(=O)[C@H](CC(C)C)NC(=O)[C@H](CC(=O)O)NC(=O)[C@H](CC(C)C)NC(=O)[C@H](CCCNC(=N)N)NC(=O)[C@@H](NC(=O)[C@H](CCCCN)NC(=O)[C@H](Cc1ccc(O)cc1)NC(=O)CNC(=O)[C@H](CCC(=O)O)NC(=O)[C@@H](N)CCCCN)C(C)C)C(=O)N[C@H](C(=O)N[C@@H](CC(C)C)C(=O)N[C@@H](CCC(=O)O)C(=O)N[C@@H](Cc1ccccc1)C(=O)N[C@@H](CCC(=O)O)C(=O)N[C@H](C(=O)N[C@H](C(=O)N[C@@H](CO)C(=O)N[C@@H](CCCCN)C(=O)O)[C@@H](C)O)[C@@H](C)O)[C@@H](C)O [Peptide 5107] | 0.01 O.D. | 0.05 O.D. |  | 50% Inhibition of C72 binding to mouse R38 (5100) (C72 anti-DNA antibody): 85 µg/mL |
| KAGYKVRLALNITLAFRTTSK [Peptide 5108] | 1.93 O.D. | 2.75 O.D. |  | 50% Inhibition of C72 binding to mouse R38 (5100) (C72 anti-DNA antibody): 2 µg/mL; Urine anti-5108 O.D. (Mean + S.E.) ([6]; Example 9, renal disease absent, 2 samples): 0.064 ± 0.05 O.D.; Urine anti-5108 O.D. (Mean + S.E.) ([6]; Example 9, renal disease present, 22 samples): 0.672 ± 0.1 O.D. |
| heparin |  |  |  | inhibition of the binding of C72 to 5200 (FIG. 2) [5]: inhibition |
| KATPMLKMRTSFHGCIK [Peptide R37, laminin derived peptide, residues 2615-2631] |  | 1.8 O.D. |  | binding of C72 murine anti-DNA antibody to laminin peptides (FIG. 1) [2]: binding |
| KEGYKVELDLNITLEFRTTSK [Peptide 5106] | 0.16 O.D. | 1.9 O.D. |  | 50% Inhibition of C72 binding to mouse R38 (5100) (C72 anti-DNA antibody): 2.5 µg/mL |
| AEGYAVALDLNITLEFATTSA [Peptide 5104] | 0.02 O.D. | 0.06 O.D. |  |  |
| VRLDLNITLEFR [Peptide 5102] | 0.02 O.D. | 0.1 O.D. |  | 50% Inhibition of C72 binding to mouse R38 (5100) (C72 anti-DNA antibody): 30 µg/mL |
| KQNCLSSRASFRGCVRNLRLSR [Peptide R30, laminin derived peptide, residues 3011-3032] |  | 0.75 O.D. |  | binding of C72 murine anti-DNA antibody to laminin peptides (FIG. 1) [2]: binding |
| DGKWHTVKTEYIKRKAF [Peptide R28, laminin derived peptide, residues 2779-2795] |  | 0.01 O.D. |  |  |
| VQSDVNITLEFR [Peptide 5111] | 0.01 O.D. | 0.01 O.D. |  |  |
| KEGYKVRLALNITLEFRTTSK [Peptide 5109] | 1.94 O.D. | 2.72 O.D. |  | 50% Inhibition of C72 binding to mouse R38 (5100) (C72 anti-DNA antibody): 0.7 µg/mL |
| B1 |  |  | 85 µg/mL |  |
| B2 |  |  | 10 µg/mL |  |
| B3 |  |  | 85 µg/mL |  |
| B4 |  |  | 2.5 µg/mL |  |
| B5 |  |  | 2 µg/mL |  |
| B6 |  |  | 5 µg/mL |  |
| B7 |  |  | 0.7 µg/mL |  |
| B8 |  |  | 30 µg/mL |  |
| B9 |  |  | 10 µg/mL |  |
| B10 |  |  | 0.7 µg/mL |  |
